For one assay, the target named is hAM1 receptor (Homo sapiens, UniProt O60895+Q16602). Kind of assay: cAMP assay for in vitro receptor activation, hAM1-R. In kind it is cell-based. The following applies: cAMP assay, hAM1 receptor; read-out: hAM1R EC50. Put shortly:
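Monoclonal stable hAM1-overexpressing cells, thawed from frozen stock; 8000 cells/well in DPBS + 0.05% casein + 0.5 mM IBMX; read-out cAMP.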
(Changes in cAMP serve as a functional read-out for many G protein-coupled receptors.)

For a further assay, the target named is T1, hAMY3 receptor (Homo sapiens, UniProt O60896+P30988).
T1 sequence (P30988 25-474): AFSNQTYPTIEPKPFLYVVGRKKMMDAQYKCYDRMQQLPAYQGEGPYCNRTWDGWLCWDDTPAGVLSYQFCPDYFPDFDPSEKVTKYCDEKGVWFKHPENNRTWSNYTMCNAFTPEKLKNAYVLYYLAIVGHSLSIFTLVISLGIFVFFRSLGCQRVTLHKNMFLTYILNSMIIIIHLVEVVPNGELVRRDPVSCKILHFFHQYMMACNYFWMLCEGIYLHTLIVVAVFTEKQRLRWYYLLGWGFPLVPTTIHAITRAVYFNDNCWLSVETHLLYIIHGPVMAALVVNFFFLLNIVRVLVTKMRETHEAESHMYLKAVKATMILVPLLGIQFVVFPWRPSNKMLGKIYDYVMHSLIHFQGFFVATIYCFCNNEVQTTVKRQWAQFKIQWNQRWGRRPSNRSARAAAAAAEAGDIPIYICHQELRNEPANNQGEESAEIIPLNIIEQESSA
T1 sequence (O60896 24-148 partner): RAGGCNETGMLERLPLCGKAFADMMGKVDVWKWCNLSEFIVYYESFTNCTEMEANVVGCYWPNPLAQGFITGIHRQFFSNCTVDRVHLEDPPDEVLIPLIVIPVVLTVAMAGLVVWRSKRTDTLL
Kind of assay: cAMP assay for in vitro receptor activation, hAMY3-R. In kind it is cell-based. The following applies: cAMP assay, hAMY3 receptor; read-out: hAMY3R EC50. In outline:
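Stable hAMY3 cells; DPBS + 0.05% casein + 0.5 mM IBMX; graded compound doses, 30 min, RT; cAMP via HTRF Gs kit, TR-FRET read at 1 h.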

Numbered stars: 1 amine (or outer) side, 2 acyl side, 3 side chain; on linkers, the order of the positions; unused ones are H or OH. Bridge positions count the residues as written; N and C are the ends. Square brackets hold non-standard residues; d marks the D form. Peptide text beside a SMILES is read from it. * marks the point of attachment. C20 diacid = O=C(O)CCCCCCCCCCCCCCCCCCC(=O)*; γGlu = O=C(O)[C@H](CCC(=O)[*:2])N[*:1]; Hyp = O=C(O)[C@@H]1C[C@@H](O)CN1

hAM1 receptor, sequence (Q16602 23-461): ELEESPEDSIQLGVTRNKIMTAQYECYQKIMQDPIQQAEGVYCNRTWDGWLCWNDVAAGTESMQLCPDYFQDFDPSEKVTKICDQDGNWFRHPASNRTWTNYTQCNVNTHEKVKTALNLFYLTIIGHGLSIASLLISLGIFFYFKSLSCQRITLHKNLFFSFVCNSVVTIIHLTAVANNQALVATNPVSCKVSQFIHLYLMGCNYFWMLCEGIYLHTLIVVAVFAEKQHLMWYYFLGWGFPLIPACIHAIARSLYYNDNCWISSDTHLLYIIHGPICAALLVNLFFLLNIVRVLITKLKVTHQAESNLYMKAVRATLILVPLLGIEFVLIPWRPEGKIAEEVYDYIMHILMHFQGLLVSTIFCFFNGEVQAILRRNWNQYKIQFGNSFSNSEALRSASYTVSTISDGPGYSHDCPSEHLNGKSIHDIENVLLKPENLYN
hAM1 receptor, sequence (O60895 43-175 partner): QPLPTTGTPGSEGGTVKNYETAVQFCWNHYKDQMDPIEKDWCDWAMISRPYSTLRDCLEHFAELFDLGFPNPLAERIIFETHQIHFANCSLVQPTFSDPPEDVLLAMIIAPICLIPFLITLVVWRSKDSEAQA

In general, EC50 refers to the midpoint of the concentration-response curve. Regarding `CC[C@H](C)[C@H](NC(=O)[C@H](CCC(N)=O)NC(=O)[C@H](CC(=O)O)NC(=O)[C@H](C)NC(=O)[C@H](CC(C)C)NC(=O)[C@H](CCCNC(=N)N)NC(=O)[C@H](C)NC(=O)[C@@H](NC(=O)[C@@H](NC(=O)[C@@H]1CSSC[C@H](NC(=O)[C@@H](N)CCCCN)C(=O)N[C@@H](CC(N)=O)C(=O)N[C@@H]([C@@H](C)O)C(=O)N[C@@H](CO)C(=O)N[C@@H]([C@@H](C)O)C(=O)N1)[C@@H](C)O)C(C)C)C(=O)N[C@H](C(=O)N[C@@H](CCC(N)=O)C(=O)N[C@@H](Cc1ccccc1)C(=O)N[C@@H](CO)C(=O)N[C@@H](CC(N)=O)C(=O)N[C@@H](CCCCN)C(=O)N[C@@H](CC(=O)O)C(=O)N[C@@H](CCCCN)C(=O)N[C@@H](C)C(=O)N[C@@H](CCC(N)=O)C(=O)N[C@H](C(=O)N[C@@H](CO)C(=O)N1CCC[C@H]1C(=O)N1CCC[C@H]1C(=O)N[C@H](C(=O)N[C@@H](CCC(=O)O)C(=O)N[C@H](C(=O)NCC(=O)N1CCC[C@H]1C(=O)N[C@@H](CC(N)=O)C(=O)N[C@@H](CO)C(=O)N1C[C@H](O)C[C@H]1C(N)=O)C(C)C)[C@@H](C)O)C(C)C)[C@@H](C)O` [compound 8] (H-KCNTSTCTVARLADQITQFSNKDKAQVSPPTEVGPNS[Hyp]-NH2; disulfide 2-7; N-terminus assumed), the concentration for a half-maximal effect (EC50) was greater than 5000 nM at hAM1 receptor and 0.006 nM on hAMY3 receptor.

With `CC[C@H](C)[C@H](NC(=O)[C@H](CCC(N)=O)NC(=O)[C@H](Cc1c[nH]cn1)NC(=O)[C@H](C)NC(=O)[C@H](CC(C)C)NC(=O)[C@H](CCCNC(=N)N)NC(=O)[C@H](CCC(N)=O)NC(=O)[C@@H](NC(=O)[C@@H](NC(=O)[C@@H]1CSSC[C@H](NC(=O)[C@H](CCCCN)NC(=O)CC[C@H](NC(=O)CCCCCCCCCCCCCCCCCCC(=O)O)C(=O)O)C(=O)N[C@@H](CC(N)=O)C(=O)N[C@@H]([C@@H](C)O)C(=O)N[C@@H](CC(C)C)C(=O)N[C@@H]([C@@H](C)O)C(=O)N1)[C@@H](C)O)C(C)C)C(=O)N[C@@H](Cc1ccc(O)cc1)C(=O)N[C@@H](CCC(N)=O)C(=O)N[C@@H](Cc1ccccc1)C(=O)N[C@H](C(=O)N[C@@H](CC(=O)O)C(=O)N[C@@H](CCCCN)C(=O)N[C@@H](CC(=O)O)C(=O)N[C@@H](CCCCN)C(=O)N[C@@H](CC(=O)O)C(=O)N[C@@H](CC(N)=O)C(=O)N[C@H](C(=O)N[C@@H](C)C(=O)N1CCC[C@H]1C(=O)N1CCC[C@H]1C(=O)N[C@H](C(=O)N[C@@H](CC(N)=O)C(=O)N[C@H](C(=O)NCC(=O)N[C@@H](CO)C(=O)N[C@@H](CC(N)=O)C(=O)NCC(=O)N1C[C@H](O)C[C@H]1C(N)=O)C(C)C)[C@@H](C)O)C(C)C)[C@@H](C)O` [compound 225] ({C20 diacid-γGlu}-KCNTLTCTVQRLAHQIYQFTDKDKDNVAPPTNVGSNG[Hyp]-NH2; disulfide 2-7), the results for the EC50 at hAM1 receptor and on hAMY3 receptor were greater than 5000 nM and 0.186 nM, respectively.

(Values after US12139520B2 (priority 2020, dated 2024).)
